PubChem BioAssay AID2060905 (Molecular Pharmacology Branch, DTP, NCI, 2025)

Tested on: 282377-053-R-J1-PDC complex spheroid viability
Experiment: Anticancer human tumor 282377-053-R-J1-PDC patient-derived colon adenocarcinoma cell line growth inhibition [RAS]
Conditions: for IC50: curve of first compound; for viability, T/C: stronger effect = lower value; active = viability on the fitted dose curve at most 10% of control; inactive = the rest
Method in brief: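 Agents were tested in combination matrices in half-log decrements from a top concentration at or near clinical Cmax (10 microM if undetermined). Targets were multi-cell spheroids of tumour lines plus HUVEC and MSC stromal cells.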

[1] = second compound 0.000949 µM, first compound 0.0316 µM
[2] = second compound 0.000949 µM, first compound 0.1 µM
[3] = second compound 0.000949 µM, first compound 0.316 µM
[4] = second compound 0.000949 µM, first compound 1 µM
[5] = second compound 0.000949 µM, first compound 3.16 µM
[6] = second compound 0.000949 µM, first compound 10 µM
[7] = second compound 0.003 µM, first compound 0.0316 µM
[8] = second compound 0.003 µM, first compound 0.1 µM
[9] = second compound 0.003 µM, first compound 0.316 µM
[10] = second compound 0.003 µM, first compound 1 µM
[11] = second compound 0.003 µM, first compound 3.16 µM
[12] = second compound 0.003 µM, first compound 10 µM
[13] = second compound 0.00949 µM, first compound 0.0316 µM
[14] = second compound 0.00949 µM, first compound 0.1 µM
[15] = second compound 0.00949 µM, first compound 0.316 µM
[16] = second compound 0.00949 µM, first compound 1 µM
[17] = second compound 0.00949 µM, first compound 3.16 µM
[18] = second compound 0.00949 µM, first compound 10 µM
[19] = second compound 0.03 µM, first compound 0.0316 µM
[20] = second compound 0.03 µM, first compound 0.1 µM
[21] = second compound 0.03 µM, first compound 0.316 µM
[22] = second compound 0.03 µM, first compound 1 µM
[23] = second compound 0.03 µM, first compound 3.16 µM
[24] = second compound 0.03 µM, first compound 10 µM
[25] = second compound 0.0949 µM, first compound 0.0316 µM
[26] = second compound 0.0949 µM, first compound 0.1 µM
[27] = second compound 0.0949 µM, first compound 0.316 µM
[28] = second compound 0.0949 µM, first compound 1 µM
[29] = second compound 0.0949 µM, first compound 3.16 µM
[30] = second compound 0.0949 µM, first compound 10 µM
[31] = second compound 0.3 µM, first compound 0.0316 µM
[32] = second compound 0.3 µM, first compound 0.1 µM
[33] = second compound 0.3 µM, first compound 0.316 µM
[34] = second compound 0.3 µM, first compound 1 µM
[35] = second compound 0.3 µM, first compound 3.16 µM
[36] = second compound 0.3 µM, first compound 10 µM
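Also: spheroids exposed to agents for seven days before readout.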
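For viability, T/C in this document: luminescence viability as percent of DMSO vehicle control wells.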

CC1(O)CCCC1n1c(=O)c(C(F)F)cc2cnc(NC3CCN(S(C)(=O)=O)CC3)nc21 (stereo unspecified) + CCn1c(-c2cc(N3CCN(C)CC3)cnc2C(C)OC)c2c3cc(ccc31)-c1csc(n1)CC(NC(=O)C1CC1C)C(=O)N1CCCC(N1)C(=O)OCC(C)(C)C2
6.98 µM: IC50 (second compound 0.03 µM)
6.75 µM: IC50 (second compound 0.000949 µM)
7.03 µM: IC50 (second compound 0.00949 µM)
inactive: viability, T/C [1] 101% | viability, T/C [2] 141% | viability, T/C [3] 112% | viability, T/C [4] 155% | viability, T/C [5] 162% | viability, T/C [7] 116% | viability, T/C [8] 117% | viability, T/C [9] 151% | viability, T/C [10] 146% | viability, T/C [11] 204% | viability, T/C [12] 10.2% | viability, T/C [13] 91.9% | viability, T/C [14] 115% | viability, T/C [15] 165% | viability, T/C [16] 153% | viability, T/C [17] 189% | viability, T/C [19] 112% | viability, T/C [20] 104% | viability, T/C [21] 169% | viability, T/C [22] 182% | viability, T/C [23] 167% | viability, T/C [25] 94.1% | viability, T/C [26] 141% | viability, T/C [27] 139% | viability, T/C [28] 141% | viability, T/C [29] 203% | viability, T/C [31] 106% | viability, T/C [32] 134% | viability, T/C [33] 152% | viability, T/C [34] 190% | viability, T/C [35] 174%
7.15 µM: IC50 (second compound 0.003 µM)
7.08 µM: IC50 (second compound 0.3 µM)
6.92 µM: IC50 (second compound 0.0949 µM)
active: viability, T/C [6] 6.35% | viability, T/C [18] 9.24% | viability, T/C [24] 6.22% | viability, T/C [30] 5.83% | viability, T/C [36] 6.62%

CCN1CCN(Cc2ccc(Nc3ncc(F)c(-c4cc(F)c5nc(C)n(C(C)C)c5c4)n3)nc2)CC1 + CCn1c(-c2cc(N3CCN(C)CC3)cnc2C(C)OC)c2c3cc(ccc31)-c1csc(n1)CC(NC(=O)C1CC1C)C(=O)N1CCCC(N1)C(=O)OCC(C)(C)C2
inactive: viability, T/C (second compound 0.000949 µM, first compound 0.00316 µM) 101% | viability, T/C (second compound 0.000949 µM, first compound 0.01 µM) 119% | viability, T/C [1] 98.1% | viability, T/C [2] 120% | viability, T/C [3] 188% | viability, T/C [4] 180% | viability, T/C (second compound 0.003 µM, first compound 0.00316 µM) 102% | viability, T/C (second compound 0.003 µM, first compound 0.01 µM) 137% | viability, T/C [7] 114% | viability, T/C [8] 90.1% | viability, T/C [9] 142% | viability, T/C [10] 170% | viability, T/C (second compound 0.00949 µM, first compound 0.00316 µM) 115% | viability, T/C (second compound 0.00949 µM, first compound 0.01 µM) 126% | viability, T/C [13] 96.2% | viability, T/C [14] 105% | viability, T/C [15] 108% | viability, T/C [16] 194% | viability, T/C (second compound 0.03 µM, first compound 0.00316 µM) 90.4% | viability, T/C (second compound 0.03 µM, first compound 0.01 µM) 106% | viability, T/C [19] 87.7% | viability, T/C [20] 105% | viability, T/C [21] 131% | viability, T/C [22] 212% | viability, T/C (second compound 0.0949 µM, first compound 0.00316 µM) 98.8% | viability, T/C (second compound 0.0949 µM, first compound 0.01 µM) 112% | viability, T/C [25] 89.8% | viability, T/C [26] 123% | viability, T/C [27] 146% | viability, T/C [28] 246% | viability, T/C (second compound 0.3 µM, first compound 0.00316 µM) 102% | viability, T/C (second compound 0.3 µM, first compound 0.01 µM) 123% | viability, T/C [31] 123% | viability, T/C [32] 119% | viability, T/C [33] 162% | viability, T/C [34] 227%
> 1 µM: IC50 (second compound 0.000949 µM) | IC50 (second compound 0.003 µM) | IC50 (second compound 0.00949 µM) | IC50 (second compound 0.03 µM) | IC50 (second compound 0.0949 µM) | IC50 (second compound 0.3 µM)

C[C@@H](NC(=O)c1ncnc(N)c1Cl)c1ncc(C(=O)Nc2cc(C(F)(F)F)c(Cl)cn2)s1 + CCn1c(-c2cc(N3CCN(C)CC3)cnc2C(C)OC)c2c3cc(ccc31)-c1csc(n1)CC(NC(=O)C1CC1C)C(=O)N1CCCC(N1)C(=O)OCC(C)(C)C2
> 10 µM: IC50 (second compound 0.000949 µM) | IC50 (second compound 0.003 µM) | IC50 (second compound 0.00949 µM) | IC50 (second compound 0.03 µM) | IC50 (second compound 0.0949 µM) | IC50 (second compound 0.3 µM)
inactive: viability, T/C [1] 82.7% | viability, T/C [2] 100% | viability, T/C [3] 80% | viability, T/C [4] 82.7% | viability, T/C [5] 75.6% | viability, T/C [6] 68.8% | viability, T/C [7] 89.8% | viability, T/C [8] 125% | viability, T/C [9] 81.8% | viability, T/C [10] 90.2% | viability, T/C [11] 70.6% | viability, T/C [12] 59.2% | viability, T/C [13] 110% | viability, T/C [14] 115% | viability, T/C [15] 85.8% | viability, T/C [16] 94% | viability, T/C [17] 68% | viability, T/C [18] 57.9% | viability, T/C [19] 97.2% | viability, T/C [20] 106% | viability, T/C [21] 89.4% | viability, T/C [22] 96% | viability, T/C [23] 63.2% | viability, T/C [24] 60.1% | viability, T/C [25] 110% | viability, T/C [26] 105% | viability, T/C [27] 77.1% | viability, T/C [28] 94.2% | viability, T/C [29] 73.1% | viability, T/C [30] 74.2% | viability, T/C [31] 94.3% | viability, T/C [32] 103% | viability, T/C [33] 89.3% | viability, T/C [34] 108% | viability, T/C [35] 86.4% | viability, T/C [36] 61.2%
